PubChem BioAssay (NCI)
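Cultured in 96-well plates, cells were exposed to test compound for 48 hours across five concentrations. GI50 is the concentration that inhibits growth by half. TGI marks complete inhibition of growth.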

Tests used:
Assay in all cases: NCI-60 cell line screen, 48 h
A549 NSCLC = test system: A549 NSCLC
KM12 colon = test system: KM12 colon
CAKI-1 renal = test system: CAKI-1 renal
OVCAR-5 ovarian = test system: OVCAR-5 ovarian
HCT-15 colon = test system: HCT-15 colon
OVCAR-4 ovarian = test system: OVCAR-4 ovarian
MDA-MB-231 breast = test system: MDA-MB-231 breast
786-0 renal = test system: 786-0 renal
EKVX NSCLC = test system: EKVX NSCLC
PC-3 prostate = test system: PC-3 prostate

| SMILES | GI50 (A549 NSCLC) [µM] | TGI (A549 NSCLC) [µM] | GI50 (KM12 colon) [µM] | TGI (KM12 colon) [µM] | GI50 (CAKI-1 renal) [µM] | TGI (CAKI-1 renal) [µM] | GI50 (OVCAR-5 ovarian) [µM] | TGI (OVCAR-5 ovarian) [µM] | GI50 (HCT-15 colon) [µM] | TGI (HCT-15 colon) [µM] | GI50 (OVCAR-4 ovarian) [µM] | TGI (OVCAR-4 ovarian) [µM] | GI50 (MDA-MB-231 breast) [µM] | TGI (MDA-MB-231 breast) [µM] | GI50 (786-0 renal) [µM] | TGI (786-0 renal) [µM] | GI50 (EKVX NSCLC) [µM] | TGI (EKVX NSCLC) [µM] | GI50 (PC-3 prostate) [µM] | TGI (PC-3 prostate) [µM] |
| --- | --- | --- | --- | --- | --- | --- | --- | --- | --- | --- | --- | --- | --- | --- | --- | --- | --- | --- | --- | --- |
| C=C1C(=O)O[C@H]2[C@H]1CC/C(CNC(=O)/C=C/c1ccccc1)=C\CC[C@@]1(C)O[C@@H]21 | 4.39 | 19 | 4.94 | 16.7 | 1.17 | 2.49 | 1.61 | 4.27 | 0.672 | 2.06 | 1.51 | 4.14 | 1.59 | 3.08 | 1.48 | 3.69 | 1.65 | 4.51 | 1.92 | 4.15 |
| NC(=O)c1cccc(-c2cc(C(N)=O)ccc2Cl)c1 | 12.4 | > 100 | 1.88 | > 100 | 2.66 | > 100 | 4.11 | > 100 | 0.846 | > 100 | 9.21 | > 100 | 4.52 | > 100 | 5.37 | > 100 | 4.37 | > 100 | 3.03 | 40.9 |
| O=c1c(O)cccn1CCCN(CCCn1cccc(O)c1=O)CCn1cccc(O)c1=O | 4.03 | 75.2 | 3.12 | > 100 | 4.79 | > 100 | > 100 | > 100 | 10.3 | > 100 | 3.95 | > 100 | 8.28 | > 100 | 7.81 | > 100 | 2.79 | > 100 | > 100 | > 100 |
| NNc1c2ccccc2nc2ccccc12 | 5.29 | > 100 | 4.55 | 27.8 | 3.29 | 19.4 | 15.8 | 54.1 | 4.2 | 34.2 | 2.62 | 19.4 | 10.7 | 48.6 | 6.2 | 29.4 | 1.89 | 26.8 | 2.34 | 37.3 |
| O=[N+]([O-])c1ccc2c(Nc3ccccc3-c3ccccc3Nc3c4ccccc4nc4cc([N+](=O)[O-])ccc34)c3ccccc3nc2c1 | – | > 56.2 | – | 36.9 | – | 50.6 | – | 56.8 | – | 17.6 | – | 57.2 | – | 6.38 | – | 13.4 | – | 43 | – | 6.61 |
| CCOC(=O)C1=C(C)N2C(=NC3=C(CCC/C3=C\c3ccc(Cl)cc3)C2c2ccc(Cl)cc2)S1 (stereo not given) | 2.08 | 5.13 | 1.93 | 3.68 | 5.08 | > 100 | 20.1 | > 100 | 2.15 | 4.84 | 2.85 | 19.2 | 3.06 | 16.6 | 2 | 4.74 | 3.37 | 46.8 | 2.77 | > 100 |
| O=c1c(-c2ccccc2)coc2cc(OC/C(=N/O)c3ccc(F)cc3)ccc12 | 13.6 | 35.9 | 14.5 | 33.1 | 0.0715 | 26.3 | 18.1 | 43.8 | 21.3 | 50.3 | 13.7 | 59.3 | 19.6 | 43.4 | 19.3 | 41.8 | 8.59 | 26.1 | 19 | 45.9 |
